Patent publication EP4600371A1, “CELL-FREE GLYCOSYLATION OF PEPTIDES AND PROTEINS” (ETH Zurich, priority 2024, dated 2025)

Assays:
[1] = test system: TbSTT3B; experiment: Kinetic assay with ssOST enzyme: in vitro glycosylation of acceptor peptide, UPLC readout; format: biochemical, Trypanosoma brucei; details: for completion of the glycosylation reaction: after an hour of incubation at room temperature, TbSTT3B
Experimental: In vitro glycosylation reactions were performed by mixing 50 nM purified TbSTT3A or 100 nM TbSTT3B protein, 15µM Phy-LLO or Dol20-LLO, 10 mM MnCl2, 150 mM NaCl, 20 mM HEPES pH 7.5, 0.035% DDM, 0.007% CHS and 20 µM of the acceptor peptide (for STT3A: 5CF-GSDANYTYTQ (SEQ ID No 33), for STT3B: 5CF-GSLANYTK (SEQ ID No 34)), […] 1 µL samples were taken at different time points and diluted in 10% ACN, 10 mM phosphate buffer pH 7. Samples were analyzed by reverse-phase chromatography using a UPLC Dionex UltiMate 3000 with an Accucore 150-C18 100 × 2.1 mm 2.6 µm column (Thermo Fisher Scientific)40. Peaks for glycopeptide and peptide were integrated using the Software ChromeleonTM, and the amount of produced glycopeptide was determined for each data point. Turnover rate determination was performed by fitting of the data to linear regression using PRISM software.

[2] = test system: TbSTT3A; experiment: as above; format: biochemical, Trypanosoma brucei; details: compared to Dol20-PP-GlcNAc2Man5 as donor; 50 nM TbSTT3A, 15 µM LLO, 20 µM 5CF-GSDANYTYTQ, 30°C; Figure 3A
Experimental: In vitro glycosylation reactions were performed by mixing 50 nM purified TbSTT3A or 100 nM TbSTT3B protein, 15µM Phy-LLO or Dol20-LLO, 10 mM MnCl2, 150 mM NaCl, 20 mM HEPES pH 7.5, 0.035% DDM, 0.007% CHS and 20 µM of the acceptor peptide (for STT3A: 5CF-GSDANYTYTQ (SEQ ID No 33), for STT3B: 5CF-GSLANYTK (SEQ ID No 34)), and incubating at 30°C. 1 µL samples were taken at different time points and diluted in 10% ACN, 10 mM phosphate buffer pH 7. Samples were analyzed by reverse-phase chromatography using a UPLC Dionex UltiMate 3000 with an Accucore 150-C18 100 × 2.1 mm 2.6 µm column (Thermo Fisher Scientific)40. Peaks for glycopeptide and peptide were integrated using the Software ChromeleonTM, and the amount of produced glycopeptide was determined for each data point. Turnover rate determination was performed by fitting of the data to linear regression using PRISM software.

Substance | completion of the glycosylation reaction [1] | turnover rate of glycosylation [2] | turnover rate ([1]; compared to Dol20-PP-GlcNAc2Man9 as substrate, 100 nM TbSTT3B, 15 µM LLO, 20 µM 5CF-GSLANYTK, 30°C, Figure 3B)
Dol20-PP-GlcNAc2Man9 [reference compound] | went to completion |  | 
phy-PP-GlcNAc2Man5 |  | almost identical | 
phy-PP-GlcNAc2Man9 | went to completion |  | somewhat slower
